{
  "source": "paper PMC6078987",
  "about": "“Molecular insights into antibiotic resistance - how a binding protein traps albicidin” (Nature Communications, 2018)",
  "key": {"E. coli DH5α": {"test_system": "E. coli DH5α", "assay": "Agar diffusion assay", "assay_type": "cell-based", "protocol": "To verify the neutralizing ability of AlbAS, AlbAL, AlbASM, AlbASCTD, or AlbASNTD against different compounds, agar diffusion assays with the respective compounds were performed. An overnight culture of E. coli DH5α was diluted to an OD600 of 0.05 with 0.75% LB-agar. The protein-albicidin reaction mixture consisted of a 1:1 mixture of 40 μM albicidin (or derivatives) with 40 μM protein (either AlbAS or its variants AlbAL, AlbASM, AlbASNTD, and AlbASCTD). The mixture was incubated for 20 min at room temperature in the dark. Reaction mixtures of 30 μL were transferred in triplicates of 2 mm holes on the inoculated agar plate. The plates were evaluated concerning growth-inhibition zone after incubation for 18 h at 37 °C."}, "K. oxytoca": {"test_system": "K. oxytoca", "assay": "MIC assay, clinical isolates", "assay_type": "cell-based", "settings": "Klebsiella oxytoca; four K. oxytoca strains", "protocol": "(§1) The MIC assay was performed by Antiinfectives Intelligence GmbH (Rheinbach, Germany) using internationally standardized protocols and employing clinical isolates of K. oxytoca, K. pneumoniae, R. ornithologica, P. aeruginosa, A. baumannii and E. cloacae."}, "R. ornithinolytica": {"test_system": "R. ornithinolytica", "assay": "MIC assay, clinical isolates", "assay_type": "cell-based", "protocol": "as §1"}, "DNA gyrase": {"molecular_target": "DNA gyrase", "design": "method as in PMID 17074789", "settings": "read-out: half maximal inhibitory concentration (IC50); cited from earlier work"}, "AlbAS": {"molecular_target": "T1, AlbAS (Klebsiella oxytoca, UniProt Q8KRS7)", "T1 sequence (Q8KRS7 1-221)": "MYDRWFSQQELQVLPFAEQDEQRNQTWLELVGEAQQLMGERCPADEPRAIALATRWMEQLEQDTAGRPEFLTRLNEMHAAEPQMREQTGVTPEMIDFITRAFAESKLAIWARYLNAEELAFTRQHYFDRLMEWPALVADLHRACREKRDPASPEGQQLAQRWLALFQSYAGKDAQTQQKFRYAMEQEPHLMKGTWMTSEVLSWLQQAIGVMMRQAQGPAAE", "assay": "Fluorescence quenching binding assay (tryptophan fluorescence) with AlbAS", "protocol": "Fluorescence quenching measurements were performed by monitoring tryptophan fluorescence of AlbAS (20 nM), AlbAL (20 nM), AlbASNTD, and AlbASCTD (100 nM) on a FluoroMax 2 spectrometer from Horiba (Potsdam, Germany). The excitation wavelength was set to λexc = 280 nm. Emission spectra were recorded from λem = 290–450 nm with a scanning speed of 1 nm s^−1 and an integration time of 1 s. The excitation and emission slit widths were set to 8 and 4 nm, respectively. Proteins were solved in 50 mM sodium phosphate buffer with 150 mM NaCl and 0.01% DMSO at pH 6.8. All measurements were performed twice and the standard deviation is given for the Kd and the Hill factor n. Data evaluation was performed by integration of the emission band (318–410 nm for AlbAS, 316–412 nm for AlbAL, and 319–390 nm for AlbASNTD and AlbASCTD) for every titration step. The area under the curve (AUC) of the buffer blank (buffer with 0.01% DMSO) was subtracted from the measured titration data. The quenching factor was determined by subtraction of AUCs for each titration step from the AUC of the protein in the absence of ligand. For determination of the AlbAS– and AlbAL–albicidin Kd values, the data were fitted to Eq. (2).2 Y=Bmax[L]^n/Kdn+[L]^n where [L], n, and Bmax denote the total ligand concentration, the Hill coefficient, and the maximum binding capacity of the protein, respectively.\nFor the determination of the Kd for AlbAS–compound 7 the data were fitted to Eq. (3).3 Y=Pt+L+Kd-Pt+L+Kd^2-4PtL/2 where Pt is the total protein concentration."}, "Escherichia coli": {"test_system": "Escherichia coli", "design": "method as in PMID 17074789, PMID 25504839", "settings": "cited from earlier work"}},
  "note": "Where “and” joins values, the source holds several entries; their conditions need not be identical. Identical values can stand only once. Entries after “also recorded” stand apart in the source; their conditions may differ.",
  "data": [
    {"compound": "COc1c(NC(=O)c2ccc(NC(=O)c3ccc(NC(=O)[C@H](CC#N)NC(=O)c4ccc(NC(=O)/C(C)=C/c5ccc(O)cc5)cc4)cc3)c(OC)c2O)ccc(C(=O)O)c1O", "note": "[albicidin]", "values": [
      {"measurement": "neutralization of antibacterial activity by AlbAL", "setting": "E. coli DH5α; 40 µM compound pre-incubated with 40 µM AlbAL", "value": "albicidin-neutralizing effect"},
      {"measurement": "neutralization of antibacterial activity by AlbAS", "setting": "E. coli DH5α; 40 µM compound pre-incubated with 40 µM AlbAS", "value": "albicidin-neutralizing effect"},
      {"measurement": "neutralization of antibacterial activity by AlbASCTD", "setting": "E. coli DH5α; 40 µM compound with 40 µM AlbASCTD", "value": "failed to suppress the antibacterial effects; also recorded: not able to neutralize albicidin"},
      {"measurement": "neutralization of antibacterial activity by AlbASM (N75A, R181A, Q205A)", "setting": "E. coli DH5α; 40 µM compound with 40 µM AlbASM", "value": "not capable of efficiently suppressing the antibacterial activity"},
      {"measurement": "neutralization of antibacterial activity by AlbASNTD", "setting": "E. coli DH5α; 40 µM compound with 40 µM AlbASNTD", "value": "failed to suppress the antibacterial effects; also recorded: not able to neutralize albicidin"},
      {"measurement": "MIC", "setting": "K. oxytoca", "value": "≥ 64", "unit": "µg/mL"},
      {"measurement": "MIC", "setting": "R. ornithinolytica", "value": "≥ 64", "unit": "µg/mL"},
      {"measurement": "IC50", "setting": "DNA gyrase", "value": 40, "unit": "nM"},
      {"measurement": "Hill coefficient, n", "setting": "AlbAS; AlbAS 20 nM, fluorescence quenching", "value": "3.0 ± 0.5"},
      {"measurement": "Kd", "setting": "AlbAS; AlbAS 20 nM, fluorescence quenching, pH 6.8", "value": "≤ 5.6 nM and 5.6 nM"},
      {"measurement": "quenching of AlbAS emission", "setting": "AlbAS; maximal quenching by ligand", "value": 100, "unit": "%"},
      {"measurement": "MIC", "setting": "Escherichia coli", "value": 0.063, "unit": "µg/mL"}
    ]}
  ]
}
